Reference: patent US20260364080A1, “PYRAZOLO-PYRIMIDINONE COMPOUNDS FOR USE IN METHODS OF INHIBITING WEE1 A KINASE” (Acrivon Therapeutics, Inc., priority 2023, published 2026)

Key:
DAOY cells = assay: Cell Titer Glo viability assay, DAOY cells; format: cell-based; conditions: Homo sapiens, 144 h, absolute EC50
Description: Each of an ACHN renal cell carcinoma cell line (ATCC) and a DAOY medulloblastoma cell line, and an A427 lung cancer line were cultured in Minimum Essential Medium Eagle supplemented with 10% fetal calf serum (Sigma), 1% Penicillin-Streptomycin and 10 mM HEPES buffer (HyClone). Cell cultures were kept in a humidified incubator at 37 °C and 5% CO2. Cells were routinely tested for Mycoplasma contamination.
ACHN cells, DAOY cells, or A427 cells were seeded at a density of 400, 250, or 500 cells per well respectively, in tissue culture treated 384 well plates (Corning Costar). After overnight incubation, cells were treated with drugs at concentrations ranging from 17 to 10 000 nM. Viability compared to untreated control was assessed at 144 h using Cell Titer Glo assay 2.0 (Promega). […] “NT” means the compounds was not tested in the indicated cells.

[1] = target: T1, Myt1 kinase (recombinant PMYT-1) (Homo sapiens, UniProt Q99640); assay: Myt1 kinase binding assay (LanthaScreen Eu Kinase Binding Assay); conditions: 3 nM tracer 178, 2.5 nM PMYT-1, 1 nM Eu-labeled antibody; read-out: Myt1 kinase Binding IC50
T1 construct: full length PMYT-1 was expressed by baculovirus in insect cells; purchased Invitrogen A30984; host or cells: insect cells (baculovirus)
T1 sequence (Q99640 1-499): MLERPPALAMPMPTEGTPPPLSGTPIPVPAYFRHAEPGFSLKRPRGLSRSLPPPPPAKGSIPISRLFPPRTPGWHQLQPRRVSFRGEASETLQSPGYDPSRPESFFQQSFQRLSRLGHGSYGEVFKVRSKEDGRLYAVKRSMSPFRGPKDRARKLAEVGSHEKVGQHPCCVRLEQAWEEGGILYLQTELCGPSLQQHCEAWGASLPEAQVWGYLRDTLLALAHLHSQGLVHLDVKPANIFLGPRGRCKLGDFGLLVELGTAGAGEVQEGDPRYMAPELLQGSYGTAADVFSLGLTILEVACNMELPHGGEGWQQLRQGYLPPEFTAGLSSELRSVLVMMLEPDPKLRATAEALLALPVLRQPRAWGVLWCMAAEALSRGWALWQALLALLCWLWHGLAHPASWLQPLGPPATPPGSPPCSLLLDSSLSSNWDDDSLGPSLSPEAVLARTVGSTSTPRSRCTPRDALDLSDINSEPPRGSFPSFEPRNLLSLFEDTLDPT
Method in brief: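 The binding affinity of compounds for Myt1 kinase was measured with a LanthaScreen Europium (Eu) Kinase Binding Assay, a time-resolved FRET format in which test compounds compete against a labeled kinase tracer, and the results were expressed as IC50 values describing compound binding to Myt1.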

[2] = target: T2, recombinant human Wee1A kinase (Homo sapiens, UniProt P30291); assay: Wee1A kinase binding assay (LanthaScreen Eu time-resolved FRET); conditions: 30 nM tracer 178, 5 nM Wee1A kinase, 2 nM Eu-labeled antibody; 60 minutes at room temperature; read-out: Wee1A kinase Binding IC50
T2 construct: full length Wee1 kinase was expressed by baculovirus in insect cells; purchased Invitrogen PV3817; host or cells: insect cells (baculovirus)
Method in brief: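 Full-length, baculovirus-expressed GST-tagged Wee1A (5 nM) was mixed with 2 nM Eu-anti-GST antibody, 30 nM kinase tracer 178 and compound (1% DMSO). Buffer was 50 mM HEPES pH 7.5, 10 mM MgCl2, 1 mM EGTA, 0.01% Brij-35, incubated 60 min at room temperature. TR-FRET 665/615 nm emission ratios from duplicates were curve-fitted.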

ACHN cells = assay: Cell Titer Glo viability assay, ACHN cells; format: cell-based; conditions: Homo sapiens, 144 h, absolute EC50
Method in brief: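 Cells grown in MEM with 10% FCS were seeded at 500 (A427), 400 (ACHN) or 250 (DAOY) per well and treated the next day with compound at 17 to 10 000 nM. Viability relative to untreated control was read at 144 h by CellTiter-Glo 2.0.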

[3] = target: T3, Myt1 kinase (CDK1 Thr14 phosphorylation in DAOY medulloblastoma cells) (Homo sapiens, UniProt Q99640); assay: AlphaLISA assay, Myt1 kinase target engagement (phospho-CDK1 Thr14) in DAOY cells; format: cell-based; conditions: 4 h treatment, read-out: CDK1 Thr14 Phosphorylation EC50
T3 construct: pCDK1 Thr14 AlphaLISA read-out
T3 sequence (Q99640 1-499): T1 sequence (Q99640 1-499)
Method in brief: (§1)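 Cells seeded at 10,000 (DAOY) or 20,000 (ACHN) per well, treated 24 h later for 4 h with compound at 7–5000 nM. Lysates analysed by AlphaLISA SureFire Ultra phospho-CDK1 (Thr14) with donor/acceptor beads; EC50 from dose-response curves.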

[4] = target: T4, Wee1A kinase (CDK1 Tyr15 phosphorylation in ACHN renal cell carcinoma cells) (Homo sapiens, UniProt P30291); assay: High-content imaging of pCdk1 Y15, Wee1A kinase target engagement in ACHN cells; format: cell-based; conditions: 4 h treatment, nuclear positivity for pCdk1 Y15 vs DMSO control, read-out: CDK1 Tyr15 Phosphorylation EC50
T4 construct: pCDK1 Tyr15 immunofluorescence read-out
Method in brief: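 ACHN cells exposed to compound for 4 h over 7–5,000 nM or 0.3–200 nM, then fixed and immunostained for pCDK1 Y15 with DAPI nuclear counterstain. The percentage of pCdk1 Y15 nucleus-positive cells relative to DMSO control was imaged per well; EC50 from dose-response curves.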

[5] = target: T5, Myt1 kinase (CDK1 Thr14 phosphorylation in ACHN renal cell carcinoma cells) (Homo sapiens, UniProt Q99640); assay: AlphaLISA assay, Myt1 kinase target engagement (phospho-CDK1 Thr14) in ACHN cells; format: cell-based; conditions: ACHN cells (marked *); 4 h treatment
T5 construct: pCDK1 Thr14 AlphaLISA read-out
T5 sequence (Q99640 1-499): T1 sequence (Q99640 1-499)
Method in brief: as §1

T4 sequence (P30291 whole entry): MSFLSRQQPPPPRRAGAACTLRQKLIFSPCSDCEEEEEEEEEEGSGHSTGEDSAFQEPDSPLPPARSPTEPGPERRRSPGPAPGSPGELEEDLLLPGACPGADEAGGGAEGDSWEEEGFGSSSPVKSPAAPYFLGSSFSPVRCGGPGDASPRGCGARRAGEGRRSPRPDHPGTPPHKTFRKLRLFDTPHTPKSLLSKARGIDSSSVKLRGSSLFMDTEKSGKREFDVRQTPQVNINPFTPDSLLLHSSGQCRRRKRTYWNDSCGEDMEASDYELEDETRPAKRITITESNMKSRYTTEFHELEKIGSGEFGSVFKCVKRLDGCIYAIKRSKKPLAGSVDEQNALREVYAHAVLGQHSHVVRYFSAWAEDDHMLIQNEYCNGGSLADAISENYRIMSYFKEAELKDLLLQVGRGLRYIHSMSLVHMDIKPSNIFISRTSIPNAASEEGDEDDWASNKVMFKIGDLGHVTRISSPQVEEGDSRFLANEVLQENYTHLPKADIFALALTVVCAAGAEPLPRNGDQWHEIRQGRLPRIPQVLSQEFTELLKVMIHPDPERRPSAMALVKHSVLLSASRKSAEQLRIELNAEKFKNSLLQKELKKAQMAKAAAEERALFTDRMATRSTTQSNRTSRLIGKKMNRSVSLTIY
T2 sequence (P30291 whole entry): as above

Structure (SMILES) | EC50 (DAOY cells) [µM] | IC50 [1] [µM] | IC50 [2] [µM] | EC50 (ACHN cells) [µM] | EC50 [3] [µM] | EC50 [4] [µM] | EC50 [5] [µM]
C=CCn1c(=O)c2cnc(Nc3ccc4c(cnn4C)c3)nc2n1-c1cccc(OC2CCNCC2)n1 [Compound 106, 2-allyl-6-(1-methyl-1H-indazol-5-ylamino)-1-[6-(4-piperidyloxy)-2-pyridyl]-1,2-dihydro-3H-1,2,5,7-tetraazainden-3-one] | 0.1 to 0.5 | 0.02 to 0.1 | < 0.01 | ≤ 0.1 | 0.2 to 0.5 | < 0.1 | 
C=CCn1c(=O)c2cnc(Nc3ccnc(C)c3)nc2n1-c1cccc(OC2CCN(C)CC2)n1 [Compound 112, 1-{6-[(1-methylpiperidin-4-yl)oxy]pyridin-2-yl}-6-[(2-methylpyridin-4-yl)amino]-2-(prop-2-en-1-yl)-1H,2H,3H-pyrazolo[3,4-d]pyrimidin-3-one] | 0.1 to 0.5 | 0.02 to 0.1 | < 0.01 | ≤ 0.1 | 0.2 to 0.5 | < 0.1 | 
CN1CCC(Oc2cccc(-n3c4nc(Nc5ccc6c(cnn6C)c5)ncc4c(=O)n3C)n2)CC1 [Compound 121, 2-methyl-6-(1-methyl-1H-indazol-5-ylamino)-1-[6-(1-methyl-4-piperidyloxy)-2-pyridyl]-1,2-dihydro-3H-1,2,5,7-tetraazainden-3-one] | ≤ 0.1 | 0.02 to 0.1 | < 0.01 | ≤ 0.1 | 0.2 to 0.5 | < 0.1 | 
C=CCn1c(=O)c2cnc(Nc3cccc(C)c3)nc2n1-c1cccc(OC2CCN(C)CC2)n1 [Compound 191, 2-allyl-1-[6-(1-methyl-4-piperidyloxy)-2-pyridyl]-6-m-toluidino-1,2-dihydro-3H-1,2,5,7-tetraazainden-3-one] | ≤ 0.1 | < 0.02 | < 0.01 | ≤ 0.1 | 0.2 to 0.5 | < 0.1 | 
C=CCn1c(=O)c2cnc(Nc3ccc(C)nc3)nc2n1-c1cccc(OC2CCN(C)CC2)n1 [Compound 197, 2-allyl-1-[6-(1-methyl-4-piperidyloxy)-2-pyridyl]-6-(6-methyl-3-pyridylamino)-1,2-dihydro-3H-1,2,5,7-tetraazainden-3-one] | ≤ 0.1 | 0.02 to 0.1 | < 0.01 | ≤ 0.1 | 0.5 to 1 | < 0.1 | 
C=CCn1c(=O)c2cnc(Nc3cc(C)cc(F)c3)nc2n1-c1cccc(OC2CCN(C)CC2)n1 [Compound 205, 6-[(3-fluoro-5-methylphenyl)amino]-1-{6-[(1-methylpiperidin-4-yl)oxy]pyridin-2-yl}-2-(prop-2-en-1-yl)-1H,2H,3H-pyrazolo[3,4-d]pyrimidin-3-one] | 0.1 to 0.5 | 0.02 to 0.1 | < 0.01 | ≤ 0.1 | 0.2 to 0.5 | < 0.1 | 
C=CCn1c(=O)c2cnc(Nc3ccc(OCCF)cc3)nc2n1-c1ccnc(OC2CCN(C)CC2)n1 [Compound 388, 2-allyl-6-((4-(2-fluoroethoxy)phenyl)amino)-1-(2-((1-methylpiperidin-4-yl)oxy)pyrimidin-4-yl)-1,2-dihydro-3H-pyrazolo[3,4-d]pyrimidin-3-one] |  | 0.02 to 0.1 | < 0.01 | ≤ 0.1 |  | < 0.1 | < 0.2
C=CCn1c(=O)c2cnc(Nc3ccc4c(cnn4CCC)c3)nc2n1-c1cccc(OC2CCNCC2)n1 [Compound 390, 2-allyl-1-[6-(4-piperidyloxy)-2-pyridyl]-6-(1-propyl-1H-indazol-5-ylamino)-1,2-dihydro-3H-1,2,5,7-tetraazainden-3-one] |  | < 0.02 | < 0.01 | ≤ 0.1 |  | < 0.1 | < 0.2
C=CCn1c(=O)c2cnc(Nc3ccc4c(ccn4C(C)=O)c3)nc2n1-c1cccc(OC2CCN(C)CC2)n1 [Compound 392, 6-((1-acetyl-1H-indol-5-yl)amino)-2-allyl-1-(6-((1-methylpiperidin-4-yl)oxy)pyridin-2-yl)-1,2-dihydro-3H-pyrazolo[3,4-d]pyrimidin-3-one] |  | 0.02 to 0.1 | < 0.01 | ≤ 0.1 |  | < 0.1 | < 0.2
C=CCn1c(=O)c2cnc(Nc3ccc4c(cnn4CC(C)C)c3)nc2n1-c1cccc(OC2CCN(C)CC2)n1 [Compound 394, 2-allyl-6-((1-isobutyl-1H-indazol-5-yl)amino)-1-(6-((1-methylpiperidin-4-yl)oxy)pyridin-2-yl)-1,2-dihydro-3H-pyrazolo[3,4-d]pyrimidin-3-one] |  | < 0.02 | < 0.01 | ≤ 0.1 |  | < 0.1 | < 0.2
C=CCn1c(=O)c2cnc(Nc3ccc4nn(C(C)(C)C)cc4c3)nc2n1-c1cccc(OC2CCN(C)CC2)n1 [Compound 396, 2-allyl-6-((2-(tert-butyl)-2H-indazol-5-yl)amino)-1-(6-((1-methylpiperidin-4-yl)oxy)pyridin-2-yl)-1,2-dihydro-3H-pyrazolo[3,4-d]pyrimidin-3-one] |  | < 0.02 | < 0.01 | ≤ 0.1 |  | < 0.1 | < 0.2
C=CCn1c(=O)c2cnc(Nc3ccc4c(cnn4CCCF)c3)nc2n1-c1cccc(OC2CCNCC2)n1 [Compound 397, 2-allyl-6-((1-(3-fluoropropyl)-1H-indazol-5-yl)amino)-1-(6-(piperidin-4-yloxy)pyridin-2-yl)-1,2-dihydro-3H-pyrazolo[3,4-d]pyrimidin-3-one] |  | 0.02 to 0.1 | < 0.01 | ≤ 0.1 |  | < 0.1 | 0.5 to 1
C=CCn1c(=O)c2cnc(Nc3ccc4cn(C)nc4c3)nc2n1-c1cccc(OC2CCN(C)CC2)n1 [Compound 398, 2-allyl-6-((2-methyl-2H-indazol-6-yl)amino)-1-(6-((1-methylpiperidin-4-yl)oxy)pyridin-2-yl)-1,2-dihydro-3H-pyrazolo[3,4-d]pyrimidin-3-one] |  | 0.02 to 0.1 | < 0.01 | ≤ 0.1 |  | < 0.1 | 0.2 to 0.5
C=CCn1c(=O)c2cnc(Nc3ccc4c(c3)ncn4C(C)C)nc2n1-c1cccc(OC2CCN(C)CC2)n1 [Compound 400, 2-allyl-6-((1-isopropyl-1H-benzo[d]imidazol-5-yl)amino)-1-(6-((1-methylpiperidin-4-yl)oxy)pyridin-2-yl)-1,2-dihydro-3H-pyrazolo[3,4-d]pyrimidin-3-one] |  | < 0.02 | < 0.01 | ≤ 0.1 |  | < 0.1 | 0.2 to 0.5
